{"source": "paper PMC2646632", "about": "(ACS chemical biology, 2008)", "system": "mouse SMN mRNA", "test": "Real-time PCR of endogenous SMN mRNA in NSC34 cells", "format": "cell-based", "conditions": "trichostatin A at 100 nM", "data": [{"smiles": "Nc1nc(N)c2c(OCC3CCN(Cc4ccccc4F)CC3)cccc2n1", "note": "[D156844]", "values": [{"measurement": "Increase of SMN mRNA", "result": "two-fold"}]}, {"smiles": "CC(/C=C/C(=O)NO)=C\\[C@@H](C)C(=O)c1ccc(N(C)C)cc1", "note": "[trichostatin A]", "values": [{"measurement": "Increase of SMN mRNA", "result": "two-fold"}]}]}
